What was measured:
[1] = target: T1, Thermus thermophilus mannose-6-phosphate isomerase, wild type, Sequence No. 1 (gene SEQ ID NO: 3) (Thermus thermophilus, UniProt Q5SIM4); test: Kinetic parameters to L-ribulose, wild enzyme; assay type: biochemical; conditions: 75° C., pH 7.0, 0.5 mM Cu^2+
T1 sequence (Q5SIM4 1-254): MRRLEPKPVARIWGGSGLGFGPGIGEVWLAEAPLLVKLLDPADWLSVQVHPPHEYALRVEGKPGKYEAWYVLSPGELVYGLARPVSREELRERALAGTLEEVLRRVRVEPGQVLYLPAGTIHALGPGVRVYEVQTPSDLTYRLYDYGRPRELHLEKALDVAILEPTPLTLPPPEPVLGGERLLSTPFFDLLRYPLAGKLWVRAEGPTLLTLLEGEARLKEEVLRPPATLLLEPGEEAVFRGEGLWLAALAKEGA
Protocol: (§1) The experiment for measuring and comparing specific activities of the mannose-6-isomerase and mutant enzyme to L-ribulose was performed.
(§2) The enzyme reaction was performed at 75° C. for 5 minutes using 50 mM PIPES buffer solution (pH 7.0) including 10 mM ribulose and the metal ion of 0.5 mM Cu^2+ and then again stopped by adding a final concentration of 200 mM hydrogen chloride. In the present invention, the enzyme activity was measured by using […] as a substrate, and one unit of the enzyme activity was defined as the amount of enzyme required to produce 1 nmole of L-Ribose per 1 minute at 75° C. and pH 7.0 for a smooth comparative analysis. In addition, when measuring the enzyme activity, the analysis of the concentrations of ribose and ribulose, and other sugars was performed by using Bio liquid chromatography (Bio-LC) system (DIONEX ICS-3000, Sunnylvale, Calif., USA) installed with CarboPacPA and an electrochemical detector. At this point, 200 mM sodium hydroxide (NaOH) was passed through the CarboPacPA column at the rate of 1 ml/min at 30° C.

[2] = target: T2, Thermus thermophilus mannose-6-phosphate isomerase (Sequence No. 1) variant R142A (Thermus thermophilus, UniProt Q5SIM4, R142A); test: Kinetic parameters to L-ribulose, R142A mutant; assay type: biochemical; conditions: 75° C., pH 7.0, 0.5 mM Cu^2+
T2 construct: site-directed mutant
T2 sequence (Q5SIM4 entry or part of it R142A): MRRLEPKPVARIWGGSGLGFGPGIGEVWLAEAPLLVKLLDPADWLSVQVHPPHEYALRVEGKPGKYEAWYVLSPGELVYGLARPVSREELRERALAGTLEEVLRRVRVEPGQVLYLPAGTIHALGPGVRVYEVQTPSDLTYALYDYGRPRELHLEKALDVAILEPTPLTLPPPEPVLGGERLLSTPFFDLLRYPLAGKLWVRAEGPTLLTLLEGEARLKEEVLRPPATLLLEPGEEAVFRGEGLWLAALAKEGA
Protocol: as §1, §2

[3] = target: T3, Thermus thermophilus mannose-6-phosphate isomerase (Sequence No. 1) variant R142N (gene SEQ ID NO: 5) (Thermus thermophilus, UniProt Q5SIM4, R142N); test: Kinetic parameters to L-ribulose, R142N mutant; assay type: biochemical; conditions: 75° C., pH 7.0, 0.5 mM Cu^2+
T3 construct: site-directed mutant
T3 sequence (Q5SIM4 1-254 R142N): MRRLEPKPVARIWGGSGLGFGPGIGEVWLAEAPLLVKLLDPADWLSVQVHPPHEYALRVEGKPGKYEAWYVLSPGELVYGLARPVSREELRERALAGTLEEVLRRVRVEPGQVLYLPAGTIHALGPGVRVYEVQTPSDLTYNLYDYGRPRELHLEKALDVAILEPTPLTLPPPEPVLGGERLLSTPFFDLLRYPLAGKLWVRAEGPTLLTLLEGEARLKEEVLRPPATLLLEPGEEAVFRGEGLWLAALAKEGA
Protocol: as §1, §2

[4] = target: T4, Thermus thermophilus mannose-6-phosphate isomerase (Sequence No. 1) variant R142K (Thermus thermophilus, UniProt Q5SIM4, R142K); test: Kinetic parameters to L-ribulose, R142K mutant; assay type: biochemical; conditions: 75° C., pH 7.0, 0.5 mM Cu^2+
T4 construct: site-directed mutant
T4 sequence (Q5SIM4 entry or part of it R142K): as the sequence (Q5SIM4 entry or part of it R142A) above, with A142K counted along it
Protocol: as §1, §2

[5] = target: T5, Thermus thermophilus mannose-6-phosphate isomerase (Sequence No. 1) variant R142E (Thermus thermophilus, UniProt Q5SIM4, R142E); test: Kinetic parameters to L-ribulose, R142E mutant; assay type: biochemical; conditions: 75° C., pH 7.0, 0.5 mM Cu^2+
T5 construct: site-directed mutant
T5 sequence (Q5SIM4 entry or part of it R142E): as the sequence (Q5SIM4 entry or part of it R142A) above, with A142E counted along it
Protocol: as §1, §2

[6] = target: T6, Thermus thermophilus mannose-6-phosphate isomerase (Sequence No. 1) variant R142Y (Thermus thermophilus, UniProt Q5SIM4, R142Y); test: Kinetic parameters to L-ribulose, R142Y mutant; assay type: biochemical; conditions: 75° C., pH 7.0, 0.5 mM Cu^2+
T6 construct: site-directed mutant
T6 sequence (Q5SIM4 entry or part of it R142Y): as the sequence (Q5SIM4 entry or part of it R142A) above, with A142Y counted along it
Protocol: as §1, §2

[7] = substrate: O=C(CO)[C@@H](O)[C@@H](O)CO; test: Kinetic parameters to L-ribulose, R142N mutant; assay type: biochemical, Thermus thermophilus; conditions: other: 75° C., pH 7.0, 0.5 mM Cu^2+
Protocol: as §1, §2

[8] = substrate: O=C(CO)[C@@H](O)[C@@H](O)CO; test: Kinetic parameters to L-ribulose, wild enzyme; assay type: biochemical, Thermus thermophilus; conditions: other: 75° C., pH 7.0, 0.5 mM Cu^2+
Protocol: as §1, §2

For `O=C(CO)[C@@H](O)[C@@H](O)CO` [L-ribulose], the kcat [1] was 50644 ± 709 s⁻¹, the kcat/Km [1] was 374000 ± 11000 M⁻¹ s⁻¹ and the kcat [2] was 64873 ± 908 s⁻¹. The kcat/Km [2] was 353000 ± 11000 M⁻¹ s⁻¹, the kcat [3] was 81063 ± 1329 s⁻¹ and the kcat/Km [3] was 579000 ± 20000 M⁻¹ s⁻¹. For the same molecule, the “increase of catalytic efficiency as compared to the wild enzyme” value ([3]; ratio R142N / wild) was 1.5 fold, the kcat [4] was 68877 ± 964 s⁻¹ and the kcat/Km [4] was 302000 ± 9000 M⁻¹ s⁻¹. The kcat [5] was 32666 ± 536 s⁻¹, the kcat/Km [5] was 216000 ± 8000 M⁻¹ s⁻¹ and the kcat [6] was 56178 ± 865 s⁻¹. The kcat/Km [6] was 182000 ± 5000 M⁻¹ s⁻¹.

B1: Thermus thermophilus mannose-6-phosphate isomerase (Sequence No. 1) variant R142N (gene SEQ ID NO: 5) (Thermus thermophilus HB8; R142N) (protein)
chain: MRRLEPKPVARIWGGSGLGFGPGIGEVWLAEAPLLVKLLDPADWLSVQVHPPHEYALRVEGKPGKYEAWYVLSPGELVYGLARPVSREELRERALAGTLEEVLRRVRVEPGQVLYLPAGTIHALGPGVRVYEVQTPSDLTYNLYDYGRPRELHLEKALDVAILEPTPLTLPPPEPVLGGERLLSTPFFDLLRYPLAGKLWVRAEGPTLLTLLEGEARLKEEVLRPPATLLLEPGEEAVFRGEGLWLAALAKEGA
notes: site-directed mutant
With B1 the kcat/Km [7] was 579000 M⁻¹ s⁻¹.

B2: Thermus thermophilus mannose-6-phosphate isomerase, wild type, Sequence No. 1 (gene SEQ ID NO: 3) (Thermus thermophilus HB8) (protein)
chain: MRRLEPKPVARIWGGSGLGFGPGIGEVWLAEAPLLVKLLDPADWLSVQVHPPHEYALRVEGKPGKYEAWYVLSPGELVYGLARPVSREELRERALAGTLEEVLRRVRVEPGQVLYLPAGTIHALGPGVRVYEVQTPSDLTYRLYDYGRPRELHLEKALDVAILEPTPLTLPPPEPVLGGERLLSTPFFDLLRYPLAGKLWVRAEGPTLLTLLEGEARLKEEVLRPPATLLLEPGEEAVFRGEGLWLAALAKEGA
In the case of B2, the kcat/Km [8] is reported as 374000 M⁻¹ s⁻¹.
